# From patent US10227331B2 (priority 2015, dated 2019)
# Columns and labels:
# [1] = system: P. aeruginosa expressing IMP-1, efflux+ (MB9798); type: cell-based, Pseudomonas aeruginosa; settings: for P. aeruginosa expressing IMP-1, efflux+ (MB9798) MITC95: imipenem at 2 μg/mL, in the presence of a class A, C, D serine β-lactamase inhibitor closely related to relebactam; for Efflux ratio: ratio MITC95 PA_9798/MITC95 PA_9799
# From the text: (§1) The strain background is Pseudomonas aeruginosa PAO1.
# VIM-1 = VIM-1 (Pseudomonas aeruginosa (strain ATCC 15692 / DSM 22644 / CIP 104116 / JCM 14847 / LMG 12228 / 1C / PRS 101 / PAO1), UniProt A0A0F7KYQ8); assay: biochemical; settings: CCF2-FA substrate, 2 hours at 25° C
# Outline: (§2)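 Test compound, enzyme and the FRET cephalosporin substrate CCF2-FA are incubated together for 2 hours at 25° C. Cleavage is followed by fluorescence, and IC50 values are derived from semi-logarithmic inhibition curves fitted with a 4-parameter model.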
# IMP-1 = IMP-1 (Serratia marcescens, UniProt P52699); assay: biochemical; type: biochemical; settings: CCF2-FA substrate, 2 hours at 25° C; read-out: IMP-1 IC50
# Outline: as §2
# NDM-1 = NDM-1 (Klebsiella pneumoniae, UniProt C7C422); assay: biochemical; type: biochemical; settings: CCF2-FA substrate, 2 hours at 25° C; read-out: NDM-1 IC50
# Outline: as §2
# [2] = system: P. aeruginosa expressing IMP-1, efflux− (MB9799); assay: Efflux: concentration of MBL inhibitor which restores susceptibility to imipenem; type: cell-based, Pseudomonas aeruginosa; settings: imipenem at 2 μg/mL, in the presence of a class A, C, D serine β-lactamase inhibitor closely related to relebactam
# From the text: as §1
# [3] = system: Escherichia coli expressing NDM-1 (CLB30005, CLB30016); type: cell-based; settings: with imipenem 1 μg/ml; 95% inhibition of bacterial growth
# Outline: (§3)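 Clinical strains grown overnight on blood agar, then diluted 1:100 in 1.1× CAMHB and exposed to test compound with imipenem at 1 μg/ml. Incubation was 22–24 h at 35° C; growth was read by absorbance to find the compound concentration restoring imipenem susceptibility.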
# [4] = system: Klebsiella pneumoniae expressing VIM-1 (IHMA599644); type: cell-based; settings: with imipenem 1 μg/ml; 95% inhibition of bacterial growth
# Outline: as §3
# [5] = system: Serratia marcescens expressing IMP-1 (CL5741); type: cell-based; settings: with imipenem 1 μg/ml; 95% inhibition of bacterial growth
# Outline: as §3
# Sequence of IMP-1 (P52699 whole entry, looked up, species assumed): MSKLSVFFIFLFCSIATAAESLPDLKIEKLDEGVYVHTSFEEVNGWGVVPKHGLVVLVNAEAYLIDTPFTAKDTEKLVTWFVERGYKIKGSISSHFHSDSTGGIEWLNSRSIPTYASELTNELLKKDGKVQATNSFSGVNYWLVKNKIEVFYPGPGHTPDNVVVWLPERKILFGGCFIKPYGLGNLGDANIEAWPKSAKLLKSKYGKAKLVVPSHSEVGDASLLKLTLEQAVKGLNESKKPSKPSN
# Sequence of NDM-1 (C7C422 whole entry, looked up, species assumed): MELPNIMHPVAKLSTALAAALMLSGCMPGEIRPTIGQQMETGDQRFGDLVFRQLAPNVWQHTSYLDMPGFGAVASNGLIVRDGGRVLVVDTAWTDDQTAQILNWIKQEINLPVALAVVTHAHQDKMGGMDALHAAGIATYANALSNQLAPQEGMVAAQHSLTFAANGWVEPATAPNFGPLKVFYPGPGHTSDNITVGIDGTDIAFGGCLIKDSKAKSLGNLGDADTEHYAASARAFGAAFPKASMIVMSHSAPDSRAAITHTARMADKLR
SMILES,"P. aeruginosa expressing IMP-1, efflux+ (MB9798) MITC95 [1] [µM]",Efflux ratio [1],IC50 (VIM-1) [nM],IC50 (IMP-1) [nM],IC50 (NDM-1) [nM],"P. aeruginosa expressing IMP-1, efflux− (MB9799) MITC95 [2] [µM]",Escherichia coli expressing NDM-1 (CLB30016) MITC95 [3] [µM],Klebsiella pneumoniae expressing VIM-1 (IHMA599644) MITC95 [4] [µM],Serratia marcescens expressing IMP-1 (CL5741) MITC95 [5] [µM]
"NCCS(=O)(=O)c1ccc(-c2cnn3c2CCC3)c(-c2nnn[nH]2)c1S(N)(=O)=O.O=C(O)C(F)(F)F [Example 152, 2-((4-(5,6-dihydro-4H-pyrrolo[1,2-b]pyrazol-3-yl)-2-sulfamoyl-3-(1H-tetrazol-5-yl)phenyl)sulfonyl)ethanaminium 2,2,2-trifluoroacetate]",50,31.99,2.01,4.79,5.83,1.563,3.125,6.25,6.25
"Cn1cc2cc(-c3ccc(S(=O)(=O)CCN)c(S(N)(=O)=O)c3-c3nnn[nH]3)ccc2n1.O=C(O)C(F)(F)F [Example 153, 2-((4-(2-methyl-2H-indazol-5-yl)-2-sulfamoyl-3-(1H-tetrazol-5-yl)phenyl)sulfonyl)ethanaminium 2,2,2-trifluoroacetate]",6.25,4.00,0.309,0.457,0.593,1.563,1.563,3.125,3.125
"Cn1cc2ccc(-c3ccc(S(=O)(=O)CCN)c(S(N)(=O)=O)c3-c3nnn[nH]3)cc2n1.O=C(O)C(F)(F)F [Example 154, 2-((4-(2-methyl-2H-indazol-6-yl)-2-sulfamoyl-3-(1H-tetrazol-5-yl)phenyl)sulfonyl)ethanaminium 2,2,2-trifluoroacetate]",12.5,8.00,0.43,0.676,1.13,1.563,3.125,6.25,3.125
"NCCS(=O)(=O)c1ccc(-c2ccc3[nH]c(=O)oc3c2)c(-c2nnn[nH]2)c1S(N)(=O)=O.O=C(O)C(F)(F)F [Example 155, 2-((4-(2-oxo-2,3-dihydrobenzo[d]oxazol-6-yl)-2-sulfamoyl-3-(1H-tetrazol-5-yl)phenyl)sulfonyl)ethanaminium 2,2,2-trifluoroacetate]",3.125,4.00,0.289,0.226,0.814,0.7813,0.7813,1.563,1.563
"NCCS(=O)(=O)c1ccc(-c2cccc(-n3cccn3)c2)c(-c2nnn[nH]2)c1S(N)(=O)=O.O=C(O)C(F)(F)F [Example 156, 2-((3′-(1H-pyrazol-1-yl)-3-sulfamoyl-2-(1H-tetrazol-5-yl)-[1,1′-biphenyl]-4-yl)sulfonyl)ethanaminium 2,2,2-trifluoroacetate]",50,31.99,0.743,0.981,1.08,1.563,0.7813,6.25,1.563
"NCCS(=O)(=O)c1ccc(-c2ccc3c(c2)CC(=O)N3)c(-c2nnn[nH]2)c1S(N)(=O)=O.O=C(O)C(F)(F)F [Example 157, 2-((4-(2-oxoindolin-5-yl)-2-sulfamoyl-3-(1H-tetrazol-5-yl)phenyl)sulfonyl)ethanaminium 2,2,2-trifluoroacetate]",12.5,16.00,0.295,1.89,1.94,0.7813,1.563,3.125,1.563
"NCCS(=O)(=O)c1ccc(-c2cccc(N3CCS(=O)(=O)CC3)c2)c(-c2nnn[nH]2)c1S(N)(=O)=O.O=C(O)C(F)(F)F [Example 158, 2-((3′-(1,1-dioxidothiomorpholino)-3-sulfamoyl-2-(1H-tetrazol-5-yl)-[1,1′-biphenyl]-4-yl)sulfonyl)ethanaminium 2,2,2-trifluoroacetate]",200,64.00,7.08,6.27,16.6,3.125,12.5,25,12.5
"NCCS(=O)(=O)c1ccc(-c2ccc3cccnc3c2)c(-c2nnn[nH]2)c1S(N)(=O)=O.O=C(O)C(F)(F)F [Example 159, 2-((4-(quinolin-7-yl)-2-sulfamoyl-3-(1H-tetrazol-5-yl)phenyl)sulfonyl)ethanaminium 2,2,2-trifluoroacetate]",12.5,8.00,0.264,0.487,1.1,1.563,1.563,3.125,3.125
"Cn1ncc2cc(-c3ccc(S(=O)(=O)CCN)c(S(N)(=O)=O)c3-c3nnn[nH]3)ccc21.O=C(O)C(F)(F)F [Example 160, 2-((4-(1-methyl-1H-indazol-5-yl)-2-sulfamoyl-3-(1H-tetrazol-5-yl)phenyl)sulfonyl)ethanaminium 2,2,2-trifluoroacetate]",12.5,8.00,0.375,0.568,1.02,1.563,1.563,6.25,3.125
"NCCS(=O)(=O)c1ccc(-c2cccc(S(=O)(=O)NC3CC3)c2)c(-c2nnn[nH]2)c1S(N)(=O)=O.O=C(O)C(F)(F)F [Example 161, 2-((3′-(N-cyclopropylsulfamoyl)-3-sulfamoyl-2-(1H-tetrazol-5-yl)-[1,1′-biphenyl]-4-yl)sulfonyl)ethanaminium 2,2,2-trifluoroacetate]",50,31.99,3.04,1.69,3.47,1.563,6.25,12.5,6.25
"Cc1n[nH]c2cc(F)c(-c3ccc(S(=O)(=O)CCN)c(S(N)(=O)=O)c3-c3nnn[nH]3)cc12.O=C(O)C(F)(F)F [Example 162, 2-((4-(6-fluoro-3-methyl-1H-indazol-5-yl)-2-sulfamoyl-3-(1H-tetrazol-5-yl)phenyl)sulfonyl)ethanaminium 2,2,2-trifluoroacetate]",100,63.98,0.32,2.81,2.78,1.563,3.125,6.25,3.125
"NCCS(=O)(=O)c1ccc(-c2ccc3[nH]nc(C(F)(F)F)c3c2)c(-c2nnn[nH]2)c1S(N)(=O)=O.O=C(O)C(F)(F)F [Example 163, 2-((2-sulfamoyl-3-(1H-tetrazol-5-yl)-4-(3-(trifluoromethyl)-1H-indazol-5-yl)phenyl)sulfonyl)ethanaminium 2,2,2-trifluoroacetate]",100,127.99,0.12,1.22,0.98,0.7813,1.563,3.125,3.125
